Laboratory results from publication PMC10709440, “High-throughput ligand profile characterization in novel cell lines expressing seven heterologous insect olfactory receptors for the detection of volatile plant biomarkers” (Scientific Reports, 2023).
Like-named read-outs stand apart in the source and are kept apart here.

Molecular target: T1, Drosophila OR49b (Drosophila melanogaster, UniProt Q9V6H2)
T1 construct: expressed in transfected cells
T1 sequence (Q9V6H2 1-375): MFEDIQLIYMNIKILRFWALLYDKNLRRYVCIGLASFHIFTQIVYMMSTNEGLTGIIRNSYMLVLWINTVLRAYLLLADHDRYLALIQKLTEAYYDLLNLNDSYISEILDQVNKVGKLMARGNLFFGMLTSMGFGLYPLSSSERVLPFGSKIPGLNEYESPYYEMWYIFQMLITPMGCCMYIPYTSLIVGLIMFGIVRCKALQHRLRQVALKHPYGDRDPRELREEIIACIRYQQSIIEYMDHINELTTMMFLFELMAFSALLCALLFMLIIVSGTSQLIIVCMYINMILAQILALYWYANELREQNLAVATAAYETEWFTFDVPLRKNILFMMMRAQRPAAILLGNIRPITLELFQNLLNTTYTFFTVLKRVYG
T1 sequence (Q9VNB5 1-486 partner): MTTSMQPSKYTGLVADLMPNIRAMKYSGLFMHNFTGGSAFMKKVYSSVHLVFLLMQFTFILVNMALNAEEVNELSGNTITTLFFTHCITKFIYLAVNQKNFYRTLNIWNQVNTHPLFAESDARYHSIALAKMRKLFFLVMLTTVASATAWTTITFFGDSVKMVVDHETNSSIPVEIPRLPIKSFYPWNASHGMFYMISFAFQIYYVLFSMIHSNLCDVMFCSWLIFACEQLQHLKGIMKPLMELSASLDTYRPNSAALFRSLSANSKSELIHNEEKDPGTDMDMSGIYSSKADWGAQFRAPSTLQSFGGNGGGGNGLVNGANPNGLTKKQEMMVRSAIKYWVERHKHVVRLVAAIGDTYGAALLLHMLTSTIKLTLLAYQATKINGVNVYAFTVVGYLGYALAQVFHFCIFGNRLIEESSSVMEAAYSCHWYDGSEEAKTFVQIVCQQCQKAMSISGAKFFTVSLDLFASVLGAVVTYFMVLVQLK
Assay: cell-based
Details: for Average response / OR49b response (VUAA1-normalized) at 1 μM / OR49b response (VUAA1-normalized) at 10 μM / OR49b response (VUAA1-normalized) at 100 μM: OR49b cell line; for Average response: mean of biological replicates
Experimental: These VUAA1 normalized ∆F values were used to compare the different receptors and ligands.
The concentration-dependent effect of the reference ligands on their cognate cell lines was examined in more detail. Twelve different ligand concentrations were measured on each cell line in an overall 0.01 μM to 100 μM concentration range with 5 repetitions with three technical replicates each time.
Twelve thousand to 18,000 cells were plated into each well of a black wall, transparent bottom 384-well microplate (Greiner) 48 h or 72 h before the measurements and were simultaneously treated with 1 μg/mL doxycycline. […] The plate has 24 columns, thus we could record responses in up to eight different cell lines in each plate. On the day of the experiment, the growth medium was replaced with 20 µL assay buffer/well (140 mM NaCl, 5 mM KCl, 2 mM CaCl2, 1 mM MgCl2, 5 mM HEPES-Na, 20 mM glucose, pH 7.3, 340 mOsm). […] Baseline fluorescence (F0) was recorded for 5 s, after which 7 µL VOC buffer (140 mM NaCl, 5 mM KCl, 2 mM CaCl2, 1 mM MgCl2, 5 mM HEPES-Na, 31 mM glucose, 0.1% DMSO, pH 7.3, 340 mOsm) was injected into each well in one row and the fluorescence response was recorded for an additional 30 s, at a rate of one read/sec. VOC solutions (VOC buffer with 4× concentration of the final measured VOC concentration, 9 µL/well was injected) were measured on the same wells in a second round with the same protocol. Each individual concentration of a specific VOC sample was recorded in three wells for the same cell line on the same microplate. The raw data were exported in xls file format, F0 and FMAX values, and the fluorescence intensity changes (∆F) were calculated in Excel (Microsoft) (Supplementary file Data summary.xlsx) using the following equation: ΔF=FMAX-F0/F0 (see also Fig. 1C). On each plate, we recorded the response of each cell line to 50 µM VUAA1. The average of these ∆F values of each cell line were used to calculate the VUAA1-normalized values for the rest of the plate, by dividing VOC response ∆F values by the average VUAA1 response ∆F value of the corresponding OR cell line. Each VOC-OR combination was measured three times as technical replicates. […] The average of these replicates were used as one ∆F and VUAA1-normalized ∆F in the following analysis.
In the next rows we tested the reference VOCs (or other VOCs known to activate the corresponding cell lines), in order to test if all cell lines are responsive. The remaining rows were used to test VOCs with unknown effect.
The recorded FMAX, F0, ∆F, VUAA1-normalized ∆F values, as well as the OR name, the name of the tested sample, and the final concentration for each well were copied into supplementary file Data summary.xlsx, that was used to summarize all the plates recorded. Here, the averages of the measurements were calculated for each receptor-VOC-concentration combination.

[1] = HEK293, 1 μM VOC, 50 μM VUAA1 = 1, read-out: OR49b Average response (VUAA1-normalized)
[2] = HEK293, 10 μM VOC, 50 μM VUAA1 = 1, read-out: OR49b Average response (VUAA1-normalized)
[3] = HEK293, 100 μM VOC, 50 μM VUAA1 = 1, read-out: OR49b Average response (VUAA1-normalized)
[4] = HEK293, VOC concentration 1 μM, read-out: OR49b response (VUAA1-normalized response)
[5] = HEK293, VOC concentration 10 μM, read-out: OR49b response (VUAA1-normalized response)
[6] = HEK293, VOC concentration 100 μM, read-out: OR49b response (VUAA1-normalized response)
[7] = ligand concentration 1 (unit not given), threshold 0.05, below shown as 0
[8] = ligand concentration 10 (unit not given), threshold 0.05, below shown as 0
[9] = ligand concentration 100 (unit not given), threshold 0.05, below shown as 0
[10] = HEK293, read-out: OR49b Average response (VUAA1-normalized)
[11] = HEK293, read-out: OR49b response (VUAA1-normalized response)

| Compound | DF norm AVERAGE OR49b | Average response (odorant cc. 1 µM) | Average response (odorant cc. 10 µM) | Average response (odorant cc. 100 µM) | activation at 1 µM [4] [%] | activation at 10 µM [5] [%] | activation at 100 µM [6] [%] | DF norm AVERAGE OR49b [7] | DF norm AVERAGE OR49b [8] | DF norm AVERAGE OR49b [9] | further results |
| --- | --- | --- | --- | --- | --- | --- | --- | --- | --- | --- | --- |
| C=C(C)C1CCC2(C)OC2C1 (single isomer, unassigned; (+)) [(+)-limonene oxide] | 0 | 0.00 | 0.00 | 0.00 |  |  |  |  |  |  | OR49b response (VUAA1-normalized response) (VOC concentration 1 μM): 0.00; OR49b response (VUAA1-normalized response) (VOC concentration 10 μM): 0.00; OR49b response (VUAA1-normalized response) (VOC concentration 100 μM): 0.00 |
| Cc1ccc(C)c(C)c1 [1,2,4-trimethylbenzene] |  | 0.00 | 0.00 | 0.20 | 0 | 0 | 20 |  |  |  | activation at 1 µM [1]: 0%; activation at 10 µM [2]: 0%; activation at 100 µM [3]: 20% |
| COc1cccc(OC)c1 [1,3-dimethoxy benzene] | 0 | 0.00 | 0.00 | 0.00 | 0 | 0 | 0 |  |  |  |  |
| CCCCCCCCC(CO)CCCCCC (centres unmarked) [2-hexyl-1-decanol] |  | 0.00 | 0.00 | 0.0856 | 0 | 0 | 8.56 |  |  |  |  |
| CCCC(O)CC (centres unmarked) [3-hexanol] |  | 0.23 | 0.20 | 0.08 | 23 | 20 | 8 |  |  |  |  |
| C=CC(O)C/C=C\CC (centres unmarked) [(5Z)-octa-1,5-dien-3-ol] | 0 | 0.00 | 0.04 | 0.00 | 0 | 0 | 0 |  |  |  |  |
| C=C1[C@H]2CC[C@@H]3[C@H]2C(C)(C)CCC[C@]13C [(+)-longifolene] |  | 0.08 | 0.00 | 0.00 |  |  |  |  |  |  | OR49b response (VUAA1-normalized response) (VOC concentration 1 μM): 0.08; OR49b response (VUAA1-normalized response) (VOC concentration 10 μM): 0.00; OR49b response (VUAA1-normalized response) (VOC concentration 100 μM): 0.00 |
| C=C1CC[C@H]2O[C@]2(C)CC[C@@H]2[C@@H]1CC2(C)C [(-)-caryophyllene oxide] | 0 | 0.00 | 0.00 | 0.00 | 0 | 0 | 0 |  |  |  |  |
| CC1=CCC[C@@]2(C)[C@@H]3CC[C@]12CC3(C)C [(−)-α-neoclovene] | 0 | 0.00 | 0.00 | 0.00 |  |  |  |  |  |  | OR49b response (VUAA1-normalized response) (VOC concentration 1 μM): 0.00; OR49b response (VUAA1-normalized response) (VOC concentration 10 μM): 0.00; OR49b response (VUAA1-normalized response) (VOC concentration 100 μM): 0.00 |
| CC/C=C\CCO [Z3-hexenol] |  | 0.0226 | 0.00 | 0.00 |  |  |  |  |  |  | DF norm AVERAGE OR49b (ligand concentration 1 (unit not given), 0.05 threshold, values below shown as 0): 0; DF norm AVERAGE OR49b (ligand concentration 10 (unit not given), 0.05 threshold, values below shown as 0): 0; DF norm AVERAGE OR49b (ligand concentration 100 (unit not given), 0.05 threshold, values below shown as 0): 0 |
| CC/C=C/CCO [e3-hexenol] |  | 0.00 | 0.00 | 0.08 |  |  |  | 0 | 0 | 0.07888 |  |
| CCc1ccccc1 [ethylbenzene] |  | 0.05 | 0.09 | 0.33 |  |  |  | 0.05039 | 0.08967 | 0.3273 | activation at 1 µM [10]: 5%; activation at 10 µM [10]: 9%; activation at 100 µM [10]: 33%; activation at 1 µM [11]: 5%; activation at 10 µM [11]: 9%; activation at 100 µM [11]: 33% |
| Cc1cccc(C)c1 [m-xylene] |  | 0.00 | 0.0251 | 0.27 |  |  |  | 0 | 0 | 0.2713 | activation at 1 µM [1]: 0%; activation at 10 µM [2]: 3%; activation at 100 µM [3]: 27%; OR49b response (VUAA1-normalized) at 1 μM (VOC concentration 1 μM): 0.00; OR49b response (VUAA1-normalized) at 10 μM (VOC concentration 10 μM): 0.00; OR49b response (VUAA1-normalized) at 100 μM (VOC concentration 100 μM): 0.27 |
| Cc1ccccc1C [o-xylene] |  | 0.00 | 0.09 | 0.64 |  |  |  | 0 | 0.08728 | 0.6438 | activation at 1 µM [1]: 0%; activation at 10 µM [2]: 9%; activation at 100 µM [3]: 64%; OR49b response (VUAA1-normalized) at 1 μM (VOC concentration 1 μM): 0.00; OR49b response (VUAA1-normalized) at 10 μM (VOC concentration 10 μM): 0.09; OR49b response (VUAA1-normalized) at 100 μM (VOC concentration 100 μM): 0.64 |
| Cc1ccc(C)cc1 [p-xylene] |  | 0.00 | 0.033 | 0.38 |  |  |  | 0 | 0 | 0.379 | activation at 1 µM [1]: 0%; activation at 10 µM [2]: 3%; activation at 100 µM [3]: 38%; OR49b response (VUAA1-normalized) at 1 μM (VOC concentration 1 μM): 0.00; OR49b response (VUAA1-normalized) at 10 μM (VOC concentration 10 μM): 0.00; OR49b response (VUAA1-normalized) at 100 μM (VOC concentration 100 μM): 0.38 |
| C=C1CCC2(C(C)C)CC12 (centres unmarked) [sabinene] |  | 0.00 | 0.00 | 0.0368 |  |  |  | 0 | 0 | 0 | OR49b response (VUAA1-normalized) at 1 μM (VOC concentration 1 μM): 0.00; OR49b response (VUAA1-normalized) at 10 μM (VOC concentration 10 μM): 0.00; OR49b response (VUAA1-normalized) at 100 μM (VOC concentration 100 μM): 0.00 |
